According to patent publication US20070077552A1, “High throughput screen for inhibitors of polypeptide aggregation” (priority 2005, published 2007):

Columns and labels:
Aβ = conditions: cited from earlier work
Aβ42 = Aβ42 (Homo sapiens, UniProt P05067); conditions: shown previously (35, 36); cited from earlier work
[1] = target: T1, Aβ42-linker-GFP fusion protein (Homo sapiens, UniProt P05067); experiment: Cell-free Aβ42-linker-GFP fluorescence assay; type: biochemical; conditions: 10 μM, cell-free system
T1 construct: Wild-type Aβ42-linker-GFP was expressed in the absence (gray) or presence (black) of 10 μM tannic acid; host or cells: cell-free E. coli T7 S30 extract system for circular DNA
T1 sequence (P05067 with tags, fused parts or gaps): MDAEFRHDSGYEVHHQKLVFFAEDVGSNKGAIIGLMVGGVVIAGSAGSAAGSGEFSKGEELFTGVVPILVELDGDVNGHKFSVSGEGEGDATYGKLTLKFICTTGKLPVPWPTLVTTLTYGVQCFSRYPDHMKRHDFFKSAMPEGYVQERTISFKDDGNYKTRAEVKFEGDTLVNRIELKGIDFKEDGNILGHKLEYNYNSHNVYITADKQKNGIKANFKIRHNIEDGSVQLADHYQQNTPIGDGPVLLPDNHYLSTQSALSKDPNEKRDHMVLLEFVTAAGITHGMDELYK
Procedure: In one embodiment, the assay uses a vector encoding Aβ42-linker-GFP in a cell-free in vitro transcription and translation system. For example, the basic protocol of the cell-free assay can involve the following steps: 1) Culture 500 ml to 1L of E. coli X1Blue strain harboring Aβ-linker-GFP fusion vector until the density of the suspension reaches O.D 0.9; 2) At O.D 0.9, spin down the cells at 4,000 g for 15 min; 3) Extract the vector using the Qiagen plasmid mega kit. (Cat. No. 12183); 4) After extraction, remove contaminants using phenol extraction; 5) Add E. coli T7 S30 extract system for circular DNA (Promega, Cat. No. L1130) into each well of a 96-well plate; 6) Add control or test substances (e.g. putative drug molecules or vectors that express inhibitory polypeptide) to each well; 7) Add Aβ-linker-GFP fusion vector, and express at RT or at 37 ° C. for 3 hrs; and 8) Measure the fluorescence emission at 510 nm (using an excitation at 490 nm). One of skill in the art will recognize that other transcription/translation systems, or a modified system, can be used. Likewise, the details of the protocol can be varied and optimized to accommodate other amyloidogenic proteins, to enhance the relative fluorescence, to accommodate the needs of the assayist, or a combination thereof.
FIG. 8 illustrates the inhibition of fluorescence of Aβ42-linker-GFP in a cell free system. […]

Chain of Aβ42 (P05067 672-713 limits assumed, species assumed): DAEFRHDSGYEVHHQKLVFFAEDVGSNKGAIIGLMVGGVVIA

## CCc1nc(Nc2cccc(O)c2)nc(Nc2cccc(O)c2)n1 [RS-0466]
Aβ
  Aβ oligomerization: block Aβ oligomerization
  long-term potentiation: rescue long-term potentiation

## NCCc1ccc(O)c(O)c1 [dopamine]
Aβ42
  inhibition of Aβ42 aggregation: inhibit A42 aggregation

## O=C(OC[C@H]1O[C@@H](OC(=O)c2cc(O)c(O)c(OC(=O)c3cc(O)c(O)c(O)c3)c2)[C@H](OC(=O)c2cc(O)c(O)c(OC(=O)c3cc(O)c(O)c(O)c3)c2)[C@@H](OC(=O)c2cc(O)c(O)c(OC(=O)c3cc(O)c(O)c(O)c3)c2)[C@@H]1OC(=O)c1cc(O)c(O)c(OC(=O)c2cc(O)c(O)c(O)c2)c1)c1cc(O)c(O)c(OC(=O)c2cc(O)c(O)c(O)c2)c1 [tannic acid]
[1]
  fluorescence of wild-type Aβ42-linker-GFP / inhibition of aggregation: partially inhibits aggregation
Aβ42
  inhibition of Aβ42 aggregation: inhibit A42 aggregation
